Measured values published in US20190111040A1, “IN VIVO AMELIORATION OF ENDOGENOUS ANTI-TUMOR AUTOANTIBODIES TARGETING SURFACE TUMOR ANTIGENS VIA LOW-DOSE P4N” (THE JOHNS HOPKINS UNIVERSITY, priority 2016, published 2019).
Structures can show the parent of a compound that is named as a salt.

Tests used:
human PBMCs = experiment: Activin A and BAFF expression in human PBMCs; type: cell-based; conditions: low dose P4N (3 μM)
Protocol: FIGS. 5A-5F depict the expression of Activin A/BAFF induced by P4N treatments. (A) P4N induced Activin A or BAFF expression in human PBMCs as determined by RT-PCR. S1-S5 display different individual blood samples collected from 5 different human donors; N, no treatment; P, P4N-treatment (3 μM). The change in Activin A and BAFF expression (mean of 5 patients) relative to the control (NC) is plotted as a histogram (B) The effect of increasing dosages of P4N for 12 h on mRNA and protein levels of Activin A or BAFF in THP-1 cells was analyzed by RT-PCR and ELISA. (C) The effect of 6 μM P4N on mRNA and protein levels of Activin A or BAFF in THP-1 cells was determined at a different time period. (D) The effect of different inhibitors on Activin A-induced BAFF expression was examined. The expression of BAFF mRNA in inhibitor-treated THP-1 cells was determined by RT-PCR, and (E) BAFF protein secretion was measured by ELISA. (F) The effect of THP-1 conditioned media on the proliferation of Raji cells and OKT3 hybridoma cells were determined. […] The results are expressed as % viable cells relative to the control (NC, media from untreated THP-1 cells). […]
Reverse transcription PCR. Human PBMCs or THP-1 cells were treated with P4N, and then the mRNA expression of INHBA and BAFF in these cells was measured by reverse transcription PCR. […]

CT-26 cells = experiment: Binding of anti-sera to CT-26 tumor tissue and cell surface antigens; parameters: species or system mouse; conditions: flow cytometry, FIG. 15
Protocol: FIG. 15 is a graph showing the affinities of anti-sera against CT-26 cells after different lengths of incubation. Tumor antigens on the surface of CT26 cells were indirectly probed with P4N and PBS anti-sera and FITC-conjugated goat anti-mouse IgG antibody. The specific fluorescent activities were measured by flow cytometry.
Sections of CT-26 tumors from untreated mice were incubated with a 200-fold dilution of normal sera, PBS anti-sera or P4N anti-sera at 4° C. overnight. Sequentially, the sections were recognized using an HRP-conjugated anti-mouse IgG antibody (1:1500 dilution; Santa Cruz Biotechnology), and then developed, counterstained and photographed as described above.
Immunofluorescence analysis of cell surface tumor antigens. CT-26 cells were seeded on glass cover slides, and fixed with 4% (w/w) paraformaldehyde The fixed cells were then incubated with normal sera, PBS anti-sera or P4N anti-sera for 1 h and detected with secondary antibodies conjugated to Alexa Fluor 568 (Molecular Probes, Eugene, USA). Alexa Fluor 488-conjugated Concanavalin A (ConA; Molecular Probes) and DAPI (Molecular Probes) were used to label the plasma membrane and nucleus. The images of tumor antigens recognized by the anti-sera were photographed at a 400× magnification using a Zeiss LSM 510 META confocal microscope (Carl Zeiss, Jena, Germany).

C[C@H](Cc1ccc(OCCN2CCCCC2)c(OCCN2CCCCC2)c1)[C@@H](C)Cc1ccc(OCCN2CCCCC2)c(OCCN2CCCCC2)c1 [P4N, meso-2,3-dimethyl-1,4-bis(3,4-[2-(piperidino)ethoxyphenyl])butane tetrakishydrochloride salt]
gene expression and protein production of Activin A and BAFF (human PBMCs): increase their gene expression and protein production
binding affinities of EAA (CT-26 cells): enhanced their binding affinities
